The subject of series [1] is integration. The note with it: Vozzolo et al., J. Biol. Chem. 2010; cited from earlier work.
The test system of series [2] is HIV reactivation. The note with it: Anderson et al., PNAS 2014; cited from earlier work.
Series [3] is described as follows: Toxicity by counting live cells (trypan blue exclusion). Type of series: cell-based. The settings on record: live cell count, read-out: Cytotoxicity TC50. Here is the method: (§1) Several additional compounds were also tested for HIV virus inhibition, and the results are show in Table 5. P24 concentration in the supernatant was measured using a commercial ELISA assay. Toxicity was assessed by counting live cells (trypan blue exclusion)

Series [4] concerns HIV-1. Nature of the series: HIV virus inhibition, p24 in supernatant by ELISA. Type of series: cell-based. The settings on record: for EC50: Human immunodeficiency virus 1, HIV-1, p24 ELISA of supernatant. Here is the method: as §1
Background: An ELISA detects its analyte on a solid surface through an enzyme-linked reagent.

A short description of series [5]: Cell viability (CellTiter 96 AQueous One) in HepG2 2.2.15. It is filed as cell-based. The note with it: human, HepG2-2.2.15 cells, read-out: Cytotoxicity TC50. On the procedure:
The anti-HBV assay employed real-time qPCR (TaqMan) to directly measure extracellular HBV DNA copy number. HepG2-2.2.15 cells were plated in 96-well microtiter plates. Only the interior wells were utilized to reduce “edge effects” observed during cell culture; the exterior wells were filled with complete medium to help minimize sample evaporation. After 16-24 hours the confluent monolayer of HepG2-2.2.15 cells was washed and the medium replaced with complete medium containing various concentrations of a test compound in triplicate. 3TC was used as positive control, while media alone was added to cells as negative control (virus control, VC). Three days later the culture medium was replaced with fresh medium containing the appropriately diluted drug. Six days following the initial administration of the test compound, the cell culture supernatant collected, treated with pronase and then used in a real-time quantitative TaqMan qPCR assay. The PCR-amplified HBV DNA was detected in real-time by monitoring increases in fluorescence signals that result from the exonucleolytic degradation of a quenched fluorescent probe molecule that hybridizes to the amplified HBV DNA. […] Antiviral activity was calculated from the reduction in HBV DNA levels (IC50). […] The therapeutic index (TI) was calculated as TC50/IC50.

Series [6] concerns Hepatitis B Virus (HBV). The experiment in a line: Anti-HBV assay, real-time qPCR of extracellular HBV DNA in HepG2 2.2.15. Type of series: cell-based. Here is the method:
The anti-HBV assay employed real-time qPCR (TaqMan) to directly measure extracellular HBV DNA copy number. HepG2-2.2.15 cells were plated in 96-well microtiter plates. Only the interior wells were utilized to reduce “edge effects” observed during cell culture; the exterior wells were filled with complete medium to help minimize sample evaporation. After 16-24 hours the confluent monolayer of HepG2-2.2.15 cells was washed and the medium replaced with complete medium containing various concentrations of a test compound in triplicate. 3TC was used as positive control, while media alone was added to cells as negative control (virus control, VC). Three days later the culture medium was replaced with fresh medium containing the appropriately diluted drug. Six days following the initial administration of the test compound, the cell culture supernatant collected, treated with pronase and then used in a real-time quantitative TaqMan qPCR assay. The PCR-amplified HBV DNA was detected in real-time by monitoring increases in fluorescence signals that result from the exonucleolytic degradation of a quenched fluorescent probe molecule that hybridizes to the amplified HBV DNA. For each PCR amplification, a standard curve was simultaneously generated using dilutions of purified HBV DNA. Antiviral activity was calculated from the reduction in HBV DNA levels (IC50). CellTiter 96® AQueous One Solution Cell Proliferation Assay kit (Promega) was employed to measure cell viability which was used to calculate cytotoxicity (TC50). The therapeutic index (TI) was calculated as TC50/IC50.
Background: In qPCR the cycle at which signal appears reflects the starting amount.

Usually EC50 stands for the concentration that produces a half-maximal response. Higher therefore signals a need for much substance. Usually IC50 stands for the concentration needed to halve the response being measured.

In the case of `C=CCNC1=C2C[C@@H](C)C[C@H](OC)[C@H](O)[C@@H](C)/C=C(\C)[C@H](OC(N)=O)[C@@H](OC)/C=C\C=C(/C)C(=O)NC(=CC1=O)C2=O` [17-allylamino-17-demethoxy-geldanamycin], in series [1], the Effect on integration entry was “no effect”.

Regarding `CCNC(=O)c1noc(-c2cc(C(C)C)c(O)cc2O)c1-c1ccc(CN2CCOCC2)cc1` [AUY922], in series [2], the “Suppression of HIV reactivation” value is “almost completely suppressed”.

With `Cc1nn(-c2ccc(C(N)=O)c(NC3CCC(O)CC3)c2)c2c1C(=O)CC(C)(C)C2` (stereo not drawn) [Compound 1, 2-((4-hydroxycyclohexyl)amino)-4-(3,6,6-trimethyl-4-oxo-4,5,6,7-tetrahydro-1H-indazol-1-yl)benzamide], the CC50 in series [3] was found to be 436 nM. Besides, in series [4], the “Selectivity Index TI (TC50/EC50)” value was 54 and the EC50 came out at 8.1 nM.

As for `Cc1nn(-c2ccc(C(N)=O)c(NCCO)c2)c2c1C(=O)CC(C)(C)C2` [Compound 2, 2-((2-hydroxyethyl)amino)-4-(3,6,6-trimethyl-4-oxo-4,5,6,7-tetrahydro-1H-indazol-1-yl)benzamide], the CC50 in series [3] turned out to be 617 nM. Further, in series [4], the “Selectivity Index TI (TC50/EC50)” value came out at 12 and the EC50 came out at 52 nM.

On to `COCCNc1cc(-n2nc(C)c3c2CC(C)(C)CC3=O)ccc1C(N)=O` [Compound 3, 2-((2-methoxyethyl)amino)-4-(3,6,6-trimethyl-4-oxo-4,5,6,7-tetrahydro-1H-indazol-1-yl)benzamide], for which the CC50 in series [3] turned out to be 1160 nM. For the same compound, in series [4], the “Selectivity Index TI (TC50/EC50)” value is on record as 901 and the response was half-maximal at 1.3 nM (EC50).

With `Nc1ccn([C@@H]2CS[C@H](CO)O2)c(=O)n1` [Compound 3TC, 2′,3′-dideoxy-3′-thiacytidine, reference compound], the CC50 at 6 days in series [5] was above 500 nM. Besides, the “Selectivity Index TI (TC50/IC50)” value in series [6] (HBV in HepG2 2.2.15) is above 14.0. For the same compound, in series [6] (Hepatitis B virus, 144 h, HBV in HepG2 2.2.15, six days, read-out: Antiviral Activity IC50 (reduction in HBV DNA levels)), the IC50 stood at 35.6 nM.

`CCOCCNc1cc(-n2nc(C)c3c2CC(C)(C)CC3=O)ccc1C(N)=O` [Compound 4, 2-((2-ethoxyethyl)amino)-4-(3,6,6-trimethyl-4-oxo-4,5,6,7-tetrahydro-1H-indazol-1-yl)benzamide]: the CC50 in series [3] was 2170 nM. Moreover, in series [4], the “Selectivity Index TI (TC50/EC50)” value is on record as 24 and the EC50 worked out at 89 nM.

In series [4], `Cc1nn(-c2ccc(C(N)=O)c(NCCOCCOCCN)c2)c2c1C(=O)CC(C)(C)C2` [Compound 5, 2-((2-(2-(2-aminoethoxy)ethoxy)ethyl)amino)-4-(3,6,6-trimethyl-4-oxo-4,5,6,7-tetrahydro-1H-indazol-1-yl)benzamide] gave an EC50 of 2160 nM. In other words, the single-digit micromolar range.

In turn, `Cc1nn(-c2ccc(C(N)=O)c(NCCCO)c2)c2c1C(=O)CC(C)(C)C2` [Compound 6, 2-((3-hydroxypropyl)amino)-4-(3,6,6-trimethyl-4-oxo-4,5,6,7-tetrahydro-1H-indazol-1-yl)benzamide] showed an EC50 in series [4] of 32 nM.

On to `COCCCNc1cc(-n2nc(C)c3c2CC(C)(C)CC3=O)ccc1C(N)=O` [Compound 7, 2-((3-methoxypropyl)amino)-4-(3,6,6-trimethyl-4-oxo-4,5,6,7-tetrahydro-1H-indazol-1-yl)benzamide], for which the EC50 in series [4] is 81 nM.

Regarding `CCOCCCNc1cc(-n2nc(C)c3c2CC(C)(C)CC3=O)ccc1C(N)=O` [Compound 8, 2-((3-ethoxypropyl)amino)-4-(3,6,6-trimethyl-4-oxo-4,5,6,7-tetrahydro-1H-indazol-1-yl)benzamide], the midpoint of the response in series [4], the EC50, lay at 42 nM. Compared with the last compound, the EC50 is about 1.9-fold lower.
